The values that follow come from patent US4845129A, “Diaryl substituted cyclopentane and cyclopentene derivatives” (Sandoz Pharm. Corp., priority 1988, dated 1989).

Where only a bound is given, the exact number is not on record here.

The IC50 is the midpoint of a concentration-inhibition curve. For orientation: ED50 means the midpoint of the dose-response relation. Lower therefore signals an effect at a small dose.

The subject of one test is PAF-induced hypotension. Briefly: PAF-induced hypotension (Test D). The class given is in vivo, Wistar rats. As to the method:
Male Wistar rats, weighing approximately 300 gm, are anesthetized and their carotid arteries cannulated to enable their diastolic and systolic arterial blood pressure measurements to be recorded. PAF is then administered intravenously at either 100 or 500 ng/kg, and the blood pressure drop (within 10 sec.) and recovery time required to reach the pre-injection blood pressure level are measured.

Test [1] concerns the target T1, Human Platelet PAF Receptor (Homo sapiens, UniProt P25105).
T1 construct: endogenous in cells; host or cells: washed intact platelets from blood of healthy human donors
In words: Human Platelet PAF Receptor Assay test (Test A): inhibition of specific binding of [3H]-PAF to platelets. The conditions noted are these: inhibition of [3H]-PAF specific binding. As to the method: Human blood is obtained by venipuncture of healthy, human donors into an anti-coagulant mixture containing 3.15% of trisodium citrate and 20 μg/ml of Prostaglandin I2 (PGI2) in a ratio of blood to anti-coagulant of 9:1. Platelet rich plasma (PRP) is prepared by centrifugation (250×g) of the blood for 20 minutes at room temperature. The PRP is then centrifuged […] for 10 minutes at room temperature and the platelet pellet is washed two times with Tris-Tyrode's (TT) solution having a pH of 7.4 and containing 0.25% bovine serum albumin (BSA), and to which has been added PGI2 at a final concentration of […]. The platelets are resuspended at […] in TT/BSA containing 1.4 mM CaCl2.2H2 O and 0.7 mM MgCl2.6H2 O. All of the tests are conducted in duplicate and each of the test compounds is evaluated at concentrations of 100, 500, 1 and 0.1 μM. For each determination, the following solutions are mixed:
500 μl of the above-described platelets;
10 μl of [^3 H]-PAF (40,000 counts per minute (cpm) to a final concentration of […]); and either
10 μl of the test compound at 50× the desired final concentration,
10 μl of vehicle (total bound), or
10 μl of 1.85×10^-5 M cold PAF (non-specifically bound).
Each mixture is allowed to incubate at room temperature for one hour, after which time the reaction is terminated by the addition of 500 μl of ice cold TT/BSA and centrifugation (900×g) at 4° C. for 10 minutes. The resultant supernatant is aspirated into scintillation vials and the pellet is washed with […]. of ice cold TT/BSA and centrifuged (900×g) at 4° C. for 10 minutes. The supernatants are then aspirated into the same scintillation vials as before and 10 ml. of Scintiverse II (a liquid scintillation cocktail) is added to and mixed therewith. The pellets are resuspended in 500 μl of Scintiverse II and mixed well. An additional 2 ml. of Scintiverse II is then added to the vials and, after mixing, the vials are counted for 1 minute in a liquid scintillation spectrometer. The amount of specific binding is calculated as the difference in cpm between the total bound [^3 H]-PAF and non-specifically bound [^3 H]-PAF. The percent inhibition of specific binding is determined by dividing the cpm specifically bound in the presence of the test compound by the cpm specifically bound in total, multiplying by 100 and then subtracting from 100. An IC50 (50% inhibitory concentration) value is generated by evaluating the test compound over the full concentration range.

Test [2] deals with PAF-mediated broncho-constriction (PAF-induced Pulmonary Inflation Pressure increase). In words: PAF-induced Pulmonary Inflation Pressure (PIP) Increase test (Test B). The conditions noted are these: Cavia porcellus, PAF 100 ng/kg i.v., maximal PIP. Type of test: in vivo, guinea pigs. As to the method: Male guinea pigs, weighing between 300 and 400 gm, are anesthetized, after which time trachea tube, carotid and jugular catheters are inserted. The test animal is then force ventilated employing a small animal Harvard respirator and the resistance to lung inflation (PIP) is measured utilizing a pressure transducer and recorder. The test compound is administered orally at 30 minutes prior to, intravenously (jugular) at 5 minutes prior to, or intraarterially at 1 to 5 minutes prior to the introduction of PAF. The PAF (C18 -Sandoz, Hanover) is dissolved in Tris-Tyrode's bovine serum albumin buffer and administered intravenously (jugular) at 100 ng/kg. Any blood pressure measurements taken are recorded from a transducer attached to the carotid catheter.

In test [3] the test system is PAF-mediated extravasation. In words: PAF-induced Extravasation test (Test C), hemoconcentration. Type of test: in vivo, guinea pigs. The following applies: Cavia porcellus, PAF 100 ng/kg i.v., hematocrit increase.
Test [4] relates to PAF-induced human platelet aggregation. Briefly: Platelet Aggregation Inhibition Assay test (PAIA test): inhibition of PAF-induced human platelet aggregation in vitro. Type of test: cell-based. The conditions noted are these: 0.1 h, platelet rich plasma, AUC over 6 min. As to the method:
All of the compounds of formula I are useful as platelet activating factor inhibitors as indicated by their ability to inhibit platelet activating factor (PAF)-induced human platelet aggregation in vitro according to the Platelet Aggregation Inhibition Assay test (PAIA test) as follows:
Human subjects are kept aspirin free for one week and fasted overnight. Platelet rich plasma (PRP) is prepared by centrifugation (200×g.) of freshly drawn blood, anti-coagulated with 0.38% sodium citrate (final concentration). Platelet count is adjusted to 250,000 per μl using platelet poor plasma (PPP) obtained by a second centrifugation (700×g.) of the blood sample. An aliquot (0.38 ml) of the PRP is dispensed into cuvettes and maintained at room temperature (22° C.) until used (but for not more than two hours). The PRP-containing cuvettes are incubated at 37° C. and stirred at 900 rpm within a Payton Aggregometer which is activated to follow the light deflection pattern prior to the addition of the test compound. […] The aggregation response is quantitated by determining the area under the curve (AUC). The AUC calculated for the inducing agent alone is considered to be one hundred percent. […]

T1 sequence (P25105 whole entry): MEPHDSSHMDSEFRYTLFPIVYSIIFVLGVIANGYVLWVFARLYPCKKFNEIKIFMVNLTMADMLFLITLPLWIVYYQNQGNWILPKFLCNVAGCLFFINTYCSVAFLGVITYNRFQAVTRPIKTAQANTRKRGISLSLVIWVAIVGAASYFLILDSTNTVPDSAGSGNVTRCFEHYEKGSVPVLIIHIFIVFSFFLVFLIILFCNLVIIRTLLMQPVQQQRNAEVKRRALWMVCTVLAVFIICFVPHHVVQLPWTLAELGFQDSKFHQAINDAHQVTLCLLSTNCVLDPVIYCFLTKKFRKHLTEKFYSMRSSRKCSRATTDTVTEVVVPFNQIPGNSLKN

Consider “1-0-alkyl-2-acetyl-sn-glyceryl-3-phosphoryl-choline [PAF]”, for which the “decrease in blood pressure” value is 30% in the test with PAF-induced hypotension (PAF 100 ng/kg i.v.) and 52% in the test on PAF-induced hypotension (PAF 500 ng/kg i.v.).
Turning to `COc1cc([C@H]2CC[C@H](c3cc(OC)c(OC)c(OC)c3)C2O)cc(OC)c1OC` (relative stereo) [Example 3, 1α, 2α, 5β isomer, 2,5-bis(3,4,5-Trimethoxyphenyl)cyclopentanol], in test [1], the IC50 was 4.7 µM. Further, the ED50 in test [2] (po) and in test [3] (po) was greater than 20 mg/kg in each case.
As to `COc1cc([C@H]2CC[C@H](c3cc(OC)c(OC)c(OC)c3)C2OC)cc(OC)c1OC` (relative stereo) [Example 4, (1α,2α,5β)-2,5-bis(Trimethoxyphenyl)-1-methoxy cyclopentane], the values for the IC50 in test [4] and in test [1] (unit printed um) were 0.88 µM and 0.1 µM, respectively. Further, the ED50 in test [2] (iv, i.a.) came out at 0.5 mg/kg; in test [3] (i.a.) it was 0.4 mg/kg; in the test with PAF-induced hypotension (Rattus norvegicus, iv, PAF-induced blood pressure decrease), 0.12 mg/kg.
The molecule `COc1cc([C@H]2CC[C@H](c3cc(OC)c(OC)c(OC)c3)C2N)cc(OC)c1OC` (relative stereo) [Example 10, 1α, 2α, 5β isomer, 1-Amino-2,5-bis(3,4,5-trimethoxyphenyl)cyclopentane] had an IC50 in test [1] of 2.7 µM.
In the case of `COc1cc(C2=CCC(c3cc(OC)c(OC)c(OC)c3)C2=O)cc(OC)c1OC` (stereo not shown) [Example 1, 2,5-bis(3,4,5-Trimethoxyphenyl)cyclopent-2-enone], in test [1], the IC50 worked out at 6 µM. The ED50 in test [2] (iv, i.a.) worked out at 1 mg/kg; in test [3] (i.a.), 1 mg/kg.
In test [1], `COc1cc(C2CCC(c3cc(OC)c(OC)c(OC)c3)C2=O)cc(OC)c1OC` (stereo not shown) [Example 2, 2,5-bis(3,4,5-Trimethoxyphenyl)cyclopentanone] had an IC50 of 0.9 µM. Further, the ED50 in test [2] (po) and in test [3] (po) was greater than 20 mg/kg each time.
Take `COc1cc([C@H]2CC[C@@H](c3cc(OC)c(OC)c(OC)c3)[C@H]2O)cc(OC)c1OC` [Example 3, 1α, 2α, 5α isomer, 2,5-bis(3,4,5-Trimethoxyphenyl)cyclopentanol]: the IC50 in test [1] was 2.8 µM. Further, the ED50 in test [2] (po) is roughly 20 mg/kg; in test [3] (po), greater than 20 mg/kg.
With `COc1cc([C@H]2CC[C@@H](c3cc(OC)c(OC)c(OC)c3)[C@H]2OC)cc(OC)c1OC` [Example 5, (1α,2α,5α)-2,5-bis(Trimethoxyphenyl)-1-methoxy cyclopentane], the IC50 in test [4] stood at 22 µM.
In turn, `COc1cc(C2CCC(c3cc(OC)c(OC)c(OC)c3)C2=NO)cc(OC)c1OC` (stereo not shown) [Example 9, 2,5-bis(3,4,5-Trimethoxyphenyl)cyclopentanone, oxime] had an IC50 in test [1] of 0.45 µM. The ED50 came to 0.87 mg/kg in test [2] (po) and 0.75 mg/kg in test [3] (po).
Turning to `COc1cc([C@H]2CC[C@@H](c3cc(OC)c(OC)c(OC)c3)[C@H]2N)cc(OC)c1OC` [Example 10, 1α, 2α, 5α isomer, 1-Amino-2,5-bis(3,4,5-trimethoxyphenyl)cyclopentane], the IC50 in test [1] amounted to 22 µM.
